Measured values reported in patent US11453642B2, “Oxygenated amino- or ammonium-containing sulfonic acid, phosphonic acid and carboxylic acid derivatives and their medical use” (GRI BIO, INC., priority 2011, dated 2022).
Like-named read-outs stand apart in the source and are kept apart here.

Key:
[1] = Pharmacokinetic study after a single oral administration to mice; type: in vivo; settings: for cmax / tmax: single oral 100 mg/kg in 0.5% methylcellulose; for clast: concentration at last sampling time point; for AUC0-inf: extrapolated to infinity; for tlast: time of last sampling time point; for AUC0-t: time zero to tlast
Description: The aim of the study was to evaluate pharmacokinetic (PK) properties of five different batches including anhydrates and monohydrates of the crystal form A of compound 1a (cf. Table 1 in Example 5) after a single oral administration to mice. Three of the forms were anhydrous and two were monohydrates.
Compound 1a was administered as a suspension of 0.5% methyl cellulose (Sigma-Aldrich) in water at a dose of 100 mg/kg (10 ml/kg) by oral gavage to non-fasted female Balb/c mice (n=3).
Blood was collected by decapitation at 0.5, 1, 2, 4, 8, 12, 24, and 48 h after administration. Blood plasma was isolated by centrifugation at 4° C. (20,000×g for 10 min), transferred to microtubes containing lithium-heparin and frozen in aliquots at −70° C. until assayed by mass-spectrometry. Mean plasma concentration-time profiles (semi-logarithmic) of the five polymorphic crystal forms of compound 1a are shown in FIG. 6.
For PK evaluation, summary statistics and plotting of concentration/time curves, all values below the lower limit of quantification (LLOQ) were set to zero.

RBL-2H3 cells = assay: Maximum tolerated concentration (cytotoxicity by lactate dehydrogenase release); type: cell-based, Rat; settings: for MTC (maximum tolerated concentration): highest concentration not causing cytotoxicity (LDH release), RBL-2H3 cells; for SI (safety index): ratio between MTC and IC50
From the text: The safety index (SI) of a test compound is the ratio between the maximum tolerated concentration and the IC50 and is used as a measure of the relative safety of the test compound.

[2] = female Balb/c mice, plasma, 100 mg/kg
[3] = female Balb/c mice, single oral 100 mg/kg, 100 mg/kg
[4] = female Balb/c mice, single oral 100 mg/kg, terminal half-life, 100 mg/kg
[5] = female Balb/c mice, single oral 100 mg/kg

SMILES	cmax [1, 2]	tmax [1, 2]	MRT [1, 3]	clast [1, 3]	AUC0-inf [1, 3]	tlast [1, 3]	AUC0-t [1, 3]	MTC (maximum tolerated concentration) (RBL-2H3 cells)	SI (safety index) (RBL-2H3 cells)	other results
CCCCCCCCCCCCCCCCN(C)CC(O)CS(=O)(=O)O (centres unmarked) [2208-CF/1, 2-hydroxy-3-(N-methylhexadecylammonio)propane-sulfonate]	1003 ng/mL	1.0 h	5.0 h	1.1 ng/mL	4412 ng·h/mL	48.0 h	4400 ng·h/mL	–	–	overall exposure ([1]; compared among the five forms, single oral 100 mg/kg): highest; t1/2 [1, 4]: 7.3 h
CCCCCCCCCCCCCCCCN(C)CC(O)CS(=O)(=O)O (centres unmarked) [2338-CF/30, 2-hydroxy-3-(N-methylhexadecylammonio)propane-sulfonate]	–	1.0 h	–	1.8 ng/mL	–	48.0 h	–	–	–	cmax ([1]; female, Balb/c, mouse, plasma, po, 100 mg/kg, female Balb/c mice, plasma, read-out: cmax): 1060 ng/mL; AUC0-inf ([1]; female, Balb/c, mouse, plasma, po, 100 mg/kg, female Balb/c mice, single oral 100 mg/kg, read-out: AUC0-inf): 3140 ng·h/mL; MRT ([1]; female, Balb/c, mouse, plasma, po, 100 mg/kg, female Balb/c mice, single oral 100 mg/kg, read-out: MRT): 5.5 h; half-life ([1]; female, Balb/c, mouse, plasma, po, 100 mg/kg, female Balb/c mice, single oral 100 mg/kg, terminal half-life): 9.9 h; AUC0-t ([1]; female, Balb/c, mouse, plasma, po, 100 mg/kg, female Balb/c mice, single oral 100 mg/kg, read-out: AUC0-t): 3120 ng·h/mL
CCCCCCCCCCCCCCN(C)CC(O)CS(=O)(=O)O (centres unmarked) [Compound 1b, 2-hydroxy-3-(N-methyltetradecylammonio)propanesulfonate]	–	–	–	–	–	–	–	100 µM	19.6	–
CCCCCCCCCCCCCC[N+](C)(C)CC(CS(=O)(=O)[O-])OC (centres unmarked) [Compound 1d, 2-methoxy-3-(N,N-dimethyl-N-tetradecylammonio)-propane-1-sulfonate]	–	–	–	–	–	–	–	75 µM	22.7	–
CCCCCCCCCCCCCC[N+](C)(C)CC(CS(=O)(=O)[O-])OC(C)=O (centres unmarked) [Compound 1e, 2-acetoxy-3-(N,N-dimethyltetradecylammonio)propanesulfonate]	–	–	–	–	–	–	–	100 µM	25.6	–
CCCCCCCCCCCCCCCCN(C)CC(O)CS(=O)(=O)O (centres unmarked) [KP-0722.11, 2-hydroxy-3-(N-methylhexadecylammonio)propane-sulfonate]	571 ng/mL	2.0 h	4.8 h	3.8 ng/mL	3179 ng·h/mL	24.0 h	3162 ng·h/mL	–	–	–
CCCCCCCCCCCCCCCCN(C)CC(O)CS(=O)(=O)O (centres unmarked) [KP-0726.11, 2-hydroxy-3-(N-methylhexadecylammonio)propane-sulfonate]	759 ng/mL	1.0 h	5.5 h	1.2 ng/mL	3758 ng·h/mL	48.0 h	3744 ng·h/mL	–	–	second plasma peak (time after administration) [1, 5]: 8 h; t1/2 [1, 4]: 8.2 h
CCCCCCCCCCCCCCCCN(C)CC(O)CS(=O)(=O)O (centres unmarked) [TN-0382.11, 2-hydroxy-3-(N-methylhexadecylammonio)propane-sulfonate]	627 ng/mL	1.0 h	5.9 h	3.4 ng/mL	3547 ng·h/mL	24.0 h	3535 ng·h/mL	–	–	second plasma peak (time after administration) [1, 5]: 8 h
